Laboratory results from the NIST ThermoML archive (doi:10.1016/j.fluid.2015.07.055).
Numbers after ± are expanded uncertainties.

How the values were obtained:
[1] = Crystal; DTA
[2] = Molar enthalpy of transition or fusion; settings: Crystal; DSC

CCC(C)(C)C(=O)O[C@H]1C[C@@H](C)C=C2C=C[C@H](C)[C@H](CC[C@@H]3C[C@@H](O)CC(=O)O3)[C@H]21 [(+)-Simvastatin]
Normal melting temperature [1]: 142.0 ± 1.1 °C | Molar enthalpy of transition or fusion [2]: 7.2 ± 0.335 kcal/mol
